Measured values reported in ChEMBL document CHEMBL5537154, “Smart glypican-3-targeting peptide-chlorin e6 conjugates for targeted photodynamic therapy of hepatocellular carcinoma” (Eur J Med Chem, 2024).
Active and inactive are the calls of the source. The rule behind the calls is not given here. Peptide text beside a SMILES is read from it.

Assays:
HepG2 [1] = experiment: Antiproliferative activity against human HepG2 cells under dark condition by CCK8 assay; type: functional, cell-based
Huh-7 [2] = experiment: Antiproliferative activity against human Huh-7 cells under dark condition by CCK8 assay; type: functional, cell-based
Huh-7 [3] = experiment: Antiproliferative activity against human Huh-7 cells under 10 J/cm2 light irradiation at 660 nm by CCK8 assay; type: functional, cell-based; conditions: Huh-7, light or radiation study
MCF7 [4] = experiment: Antiproliferative activity against human MCF7 cells under dark condition by CCK8 assay; type: functional, cell-based
MCF7 [5] = experiment: Antiproliferative activity against human MCF7 cells under 10 J/cm2 light irradiation at 660 nm by CCK8 assay; type: functional, cell-based; conditions: MCF7, light or radiation study
HeLa [6] = experiment: Antiproliferative activity against human HeLa cells under dark condition by CCK8 assay; type: functional, cell-based
HeLa [7] = experiment: Antiproliferative activity against human HeLa cells under 10 J/cm2 light irradiation at 660 nm by CCK8 assay; type: functional, cell-based; conditions: light or radiation study
[8] = Antiproliferative activity against human HUVEC cells under dark condition by CCK8 assay; type: toxicity, cell-based
[9] = Antiproliferative activity against human HUVEC cells under 10 J/cm2 light irradiation at 660 nm by CCK8 assay; type: toxicity, cell-based
[10] = Partition coefficient, logP of compound; type: physicochemical; conditions: octanol/water
[11] = Photostability of compound under 250 mW/cm2 light irradiation at 660 nm incubated for 10 mins by UV spectrophotometry; type: physicochemical; conditions: 0.66 µM
[12] = Aggregation property of compound in PBS; type: physicochemical; conditions: buffer
[13] = […] assessed as decrease in fluorescence intensity of DMA; type: functional
[14] = Drug uptake in human MCF7 cells incubated for 2 hrs by fluorescence based assay; type: ADME, cell-based; conditions: mcf7, 2 h
[15] = Drug uptake in human HepG2 cells at 500 nM incubated for 2 hrs by flow cytometry; type: ADME, cell-based; conditions: hepg2, 2 h, 0.5 µM
[16] = Drug uptake in human MCF7 cells at 10 uM incubated for 4 hrs by confocal microscopy; type: ADME, cell-based; conditions: mcf7, 4 h
[17] = Drug uptake in lysosome of human HepG2 cells assessed as pearsons co-efficient of lyso tracker green DND-26-yellow signal at 2 uM incubated for 24 hrs by laser confocal microscopy; type: ADME, subcellular; conditions: hepg2, 24 h
HepG2 [18] = experiment: Induction of ROS generation in human HepG2 cells at 10 uM incubated for 24 hrs by DCFH-DA probe based flow cytometry; type: functional, cell-based
HepG2 [19] = experiment: Induction of apoptosis in human HepG2 cells assessed as early apoptotic cells at 2.5 uM incubated for 24 hrs followed by 10 J/cm2 of light irradiation at 660 nm measured after 24 hrs by Annexin V-FITC/PI staining based flow cytometry relative to control; type: functional; conditions: time 48 hrs
HepG2 [20] = experiment: Induction of apoptosis in human HepG2 cells assessed as late apoptotic cells at 5 uM incubated for 24 hrs followed by 10 J/cm2 of light irradiation at 660 nm measured after 24 hrs by Annexin V-FITC/PI staining based flow cytometry relative to control; type: functional; conditions: time 48 hrs
HepG2 [21] = experiment: Induction of apoptosis in human HepG2 cells assessed as necrotic cells at 5 uM incubated for 24 hrs followed by 10 J/cm2 of light irradiation at 660 nm measured after 24 hrs by Annexin V-FITC/PI staining based flow cytometry relative to control; type: functional; conditions: time 48 hrs
HepG2 [22] = experiment: Induction of cell cycle arrest at S phase in human HepG2 cells at 1 uM by flow cytometry relative to control; type: functional
[23] = Drug distribution in tumor of BALB/C nude mouse model xenografted with human HepG2 cells at 1 to 2 uM/kg, iv measured for 1 to 4 hrs by fluorescence imaging analysis; type: ADME, organism-based, Neoplasm; conditions: in vivo, dose lower 1 µM/Kg, time lower 1 hrs, dose upper 2 µM/Kg, time upper 4 hrs
[24] = Drug distribution in lung of BALB/C nude mouse model xenografted with human HepG2 cells at 1 to 2 uM/kg, iv measured for 1 to 4 hrs by fluorescence imaging analysis; type: ADME, organism-based; conditions: in vivo, dose lower 1 µM/Kg, time lower 1 hrs, dose upper 2 µM/Kg, time upper 4 hrs
[25] = Drug distribution in BALB/C nude mouse model xenografted with human HepG2 cells at 1 to 2 uM/kg, iv measured after 1 hr by fluorescence imaging analysis; type: ADME, organism-based; conditions: in vivo, dose 1-2 µM/Kg
[26] = Drug distribution in tumor of BALB/C nude mouse model xenografted with human HepG2 cells at 1 to 2 uM/kg, iv measured for 1 to 6 hrs by fluorescence imaging analysis; type: ADME, organism-based, Neoplasm; conditions: in vivo, dose lower 1 µM/Kg, time lower 1 hrs, dose upper 2 µM/Kg, time upper 6 hrs
HepG2 [27] = experiment: Antitumor activity in human HepG2 cells xenografted in BALB/C nude mouse model assessed as tumor growth inhibition at 1 to 2 uM/kg, iv administered every two days for 21 days along with 250 mW/cm2 light irradiation at 660 nm for 10 mins at 1 hr post-compound administration relative to control; type: functional; conditions: dose 1-2 µM/Kg, time 505.166 hrs, 505.17 h, at 1 to 2 µmol/kg
[28] = Toxicity in BALB/C nude mouse model xenografted with human HepG2 cells assessed as drug tolerance at 1 to 2 uM/kg, iv administered every two days for 21 days along with 250 mW/cm2 light irradiation at 660 nm for 10 mins at 1 hr post-compound administration; type: organism-based; conditions: in vivo, 505.17 h, dose 1-2 µM/Kg, time 505.166 hrs
[29] = Toxicity in BALB/C nude mouse model xenografted with human HepG2 cells assessed as body weight loss at 1 to 2 uM/kg, iv administered every two days for 21 days along with 250 mW/cm2 light irradiation at 660 nm for 10 mins at 1 hr post-compound administration; type: organism-based; conditions: in vivo, 505.17 h, dose 1-2 µM/Kg, time 505.166 hrs
[30] = Toxicity in BALB/C nude mouse model xenografted with human HepG2 cells assessed as change in heart weight at 1 to 2 uM/kg, iv administered every two days for 21 days along with 250 mW/cm2 light irradiation at 660 nm for 10 mins at 1 hr post-compound administration; type: organism-based; conditions: in vivo, 505.17 h, dose 1-2 µM/Kg, time 505.166 hrs
[31] = Toxicity in BALB/C nude mouse model xenografted with human HepG2 cells assessed as change in liver weight at 1 to 2 uM/kg, iv administered every two days for 21 days along with 250 mW/cm2 light irradiation at 660 nm for 10 mins at 1 hr post-compound administration; type: organism-based; conditions: in vivo, 505.17 h, dose 1-2 µM/Kg, time 505.166 hrs
[32] = Toxicity in BALB/C nude mouse model xenografted with human HepG2 cells assessed as change in spleen weight at 1 to 2 uM/kg, iv administered every two days for 21 days along with 250 mW/cm2 light irradiation at 660 nm for 10 mins at 1 hr post-compound administration; type: organism-based; conditions: in vivo, 505.17 h, dose 1-2 µM/Kg, time 505.166 hrs
[33] = Toxicity in BALB/C nude mouse model xenografted with human HepG2 cells assessed as change in kidney weight at 1 to 2 uM/kg, iv administered every two days for 21 days along with 250 mW/cm2 light irradiation at 660 nm for 10 mins at 1 hr post-compound administration; type: organism-based; conditions: in vivo, 505.17 h, dose 1-2 µM/Kg, time 505.166 hrs
[34] = Toxicity in BALB/C nude mouse model xenografted with human HepG2 cells assessed as damage in heart at 1 to 2 uM/kg, iv administered every two days for 21 days along with 250 mW/cm2 light irradiation at 660 nm for 10 mins at 1 hr post-compound administration by H and E staining based analysis; type: organism-based; conditions: in vivo, 505.17 h, dose 1-2 µM/Kg, time 505.166 hrs

Question: What does the source list for C=Cc1c(C)c2cc3nc(c(CC(=O)O)c4[nH]c(cc5nc(cc1[nH]2)C(C)=C5CC)c(C)c4C(=O)NCCCC(=O)N[C@@H](CC(=O)O)C(=O)N[C@@H](Cc1cnc[nH]1)C(=O)N[C@@H](CC(C)C)C(=O)N[C@@H](C)C(=O)N[C@@H](CO)C(=O)N[C@@H](CC(C)C)C(=O)N[C@@H](Cc1c[nH]c2ccccc12)C(=O)N[C@@H](Cc1c[nH]c2ccccc12)C(=O)NCC(=O)N[C@H](C(=O)N[C@@H](CCC(=O)O)C(=O)N[C@@H](CC(C)C)C(=O)O)[C@@H](C)O)[C@@H](CCC(=O)O)[C@@H]3C (HELM PEPTIDE1{[C=Cc1c(C)c2cc3nc(c(CC(=O)O)c4[nH]c(cc5nc(cc1[nH]2)C(C)=C5CC)c(C)c4C(=O)[*:2])[C@@H](CCC(=O)O)[C@@H]3C].[O=C(CCCN[*:1])[*:2]].D.H.L.A.S.L.W.W.G.T.E.L}$$$$V2.0)?
Answer: IC50 (HepG2 [1]): > 100 µM; IC50 (Huh-7 [2]): > 100 µM; IC50 (Huh-7 [3]): 2.4 µM; IC50 (MCF7 [4]): > 100 µM; IC50 (MCF7 [5]): > 10 µM; IC50 (HeLa [6]): > 100 µM; IC50 (HeLa [7]): > 10 µM; IC50 [8]: > 200 µM; IC50 [9]: > 10 µM; logP [10]: 1.8; Stability [11]: Stable; Activity [12]: Active; Activity [13]: Active; Drug uptake [14]: Not Active; Drug uptake [15]: Dose-Dependent Effect; Drug uptake [16]: Not Active; Activity [17]: 0.79; Activity (HepG2 [18]): inactive; Activity (HepG2 [19]): 0.1%; Activity (HepG2 [20]): 9.3%; Activity (HepG2 [21]): 15.3%; Activity (HepG2 [22]): 21.8%; Drug uptake [23]: Active; Drug uptake [24]: Not Active; Drug uptake [25]: Active; Drug uptake [26]: Active; TGI (HepG2 [27]): 100%; Activity [28]: Non-Toxic; Activity [29]: Non-Toxic; Activity [30]: Non-Toxic; Activity [31]: Non-Toxic; Activity [32]: Non-Toxic; Activity [33]: Non-Toxic; Activity [34]: Non-Toxic
